Results: ChEMBL document CHEMBL1212922, “Crystal structure-based selective targeting of the pyridoxal 5'-phosphate dependent enzyme kynurenine aminotransferase II for cognitive enhancement” (J Med Chem, 2010)

Legend:
[1] = target: Kynurenine/alpha-aminoadipate aminotransferase, mitochondrial (Rattus norvegicus, UniProt Q64602); test: Inhibition of rat brain KAT2
[2] = target: Kynurenine 3-monooxygenase (Homo sapiens) (UniProt O15229); test: Inhibition of kynurenine 3-monooxygenase in human prefrontal cortex homogenates at 100 uM; type: tissue-based
[3] = target: T1, Kynurenine--oxoglutarate transaminase 1 (Homo sapiens, UniProt Q16773); test: Inhibition of human recombinant MBP-KAT1 expressed in Escherichia coli BL21 assessed as conversion of L-kynurenine to kynurenic acid after 1 hr
T1 sequence (Q16773 whole entry): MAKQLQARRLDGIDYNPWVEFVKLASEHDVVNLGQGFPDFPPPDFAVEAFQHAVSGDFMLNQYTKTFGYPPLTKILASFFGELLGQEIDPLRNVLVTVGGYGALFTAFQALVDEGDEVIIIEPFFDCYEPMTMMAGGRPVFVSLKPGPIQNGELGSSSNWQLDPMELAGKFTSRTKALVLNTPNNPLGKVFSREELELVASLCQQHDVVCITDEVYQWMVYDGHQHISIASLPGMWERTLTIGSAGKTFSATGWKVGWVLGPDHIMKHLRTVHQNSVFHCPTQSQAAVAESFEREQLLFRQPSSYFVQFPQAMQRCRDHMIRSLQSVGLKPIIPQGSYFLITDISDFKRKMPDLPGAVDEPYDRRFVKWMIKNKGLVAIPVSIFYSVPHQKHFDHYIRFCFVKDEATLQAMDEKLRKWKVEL

[4] = target: T1, Kynurenine--oxoglutarate transaminase 1; test: Inhibition of KAT1 in human prefrontal cortex homogenates; type: tissue-based
[5] = target: T2, Kynurenine/alpha-aminoadipate aminotransferase, mitochondrial (Homo sapiens, UniProt Q8N5Z0); test: Inhibition of KAT2 in human prefrontal cortex homogenates; type: tissue-based
[6] = target: T2, Kynurenine/alpha-aminoadipate aminotransferase, mitochondrial; test: Inhibition of human recombinant MBP-KAT2 expressed in HEK293 cells assessed as conversion of L-kynurenine to kynurenic acid after 1 hr
[7] = target: T3, Kynureninase (Homo sapiens) (UniProt Q16719); test: Inhibition of kynureninase in human prefrontal cortex homogenates at 100 uM; type: tissue-based
T3 sequence (whole entry): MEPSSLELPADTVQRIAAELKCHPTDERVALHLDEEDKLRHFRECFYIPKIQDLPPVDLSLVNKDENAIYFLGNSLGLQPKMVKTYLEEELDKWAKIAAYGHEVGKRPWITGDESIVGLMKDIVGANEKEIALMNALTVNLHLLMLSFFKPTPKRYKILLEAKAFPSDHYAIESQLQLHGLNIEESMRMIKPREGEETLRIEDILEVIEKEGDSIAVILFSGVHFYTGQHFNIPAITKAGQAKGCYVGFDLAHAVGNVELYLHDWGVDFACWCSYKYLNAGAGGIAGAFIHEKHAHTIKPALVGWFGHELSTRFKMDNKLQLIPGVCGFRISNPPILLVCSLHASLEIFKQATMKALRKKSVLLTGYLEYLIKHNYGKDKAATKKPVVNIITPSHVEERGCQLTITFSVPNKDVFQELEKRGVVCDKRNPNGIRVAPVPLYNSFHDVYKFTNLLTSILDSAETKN

T2 sequence (Q8N5Z0 whole entry): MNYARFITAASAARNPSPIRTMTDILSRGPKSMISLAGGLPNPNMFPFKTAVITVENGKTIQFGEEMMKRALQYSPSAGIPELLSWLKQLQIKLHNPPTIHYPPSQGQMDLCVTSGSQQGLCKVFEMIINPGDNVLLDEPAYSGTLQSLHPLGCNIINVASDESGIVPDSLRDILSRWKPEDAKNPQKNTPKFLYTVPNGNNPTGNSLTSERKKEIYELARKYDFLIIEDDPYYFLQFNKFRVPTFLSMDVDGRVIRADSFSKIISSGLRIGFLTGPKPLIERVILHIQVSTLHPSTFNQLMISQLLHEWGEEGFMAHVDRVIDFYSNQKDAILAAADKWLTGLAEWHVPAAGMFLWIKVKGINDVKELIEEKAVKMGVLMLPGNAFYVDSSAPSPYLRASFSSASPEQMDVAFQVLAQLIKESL
Sequence of Kynurenine 3-monooxygenase (Homo sapiens) (O15229 whole entry, looked up): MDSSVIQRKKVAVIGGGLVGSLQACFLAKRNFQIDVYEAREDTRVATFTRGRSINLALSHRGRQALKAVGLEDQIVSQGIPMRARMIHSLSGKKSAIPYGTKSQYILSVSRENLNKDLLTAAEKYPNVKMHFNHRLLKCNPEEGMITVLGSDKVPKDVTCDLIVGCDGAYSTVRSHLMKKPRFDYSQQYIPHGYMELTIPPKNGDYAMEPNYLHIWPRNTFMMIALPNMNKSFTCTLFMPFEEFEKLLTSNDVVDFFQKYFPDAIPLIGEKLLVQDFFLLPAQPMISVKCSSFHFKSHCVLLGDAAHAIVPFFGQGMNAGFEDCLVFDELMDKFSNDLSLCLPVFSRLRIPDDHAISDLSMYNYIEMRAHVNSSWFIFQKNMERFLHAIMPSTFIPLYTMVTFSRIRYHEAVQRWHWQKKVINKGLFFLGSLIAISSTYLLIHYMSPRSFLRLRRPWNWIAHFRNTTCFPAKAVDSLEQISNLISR
Sequence of Kynurenine/alpha-aminoadipate aminotransferase, mitochondrial (Rattus norvegicus, UniProt Q64602) (Q64602 whole entry): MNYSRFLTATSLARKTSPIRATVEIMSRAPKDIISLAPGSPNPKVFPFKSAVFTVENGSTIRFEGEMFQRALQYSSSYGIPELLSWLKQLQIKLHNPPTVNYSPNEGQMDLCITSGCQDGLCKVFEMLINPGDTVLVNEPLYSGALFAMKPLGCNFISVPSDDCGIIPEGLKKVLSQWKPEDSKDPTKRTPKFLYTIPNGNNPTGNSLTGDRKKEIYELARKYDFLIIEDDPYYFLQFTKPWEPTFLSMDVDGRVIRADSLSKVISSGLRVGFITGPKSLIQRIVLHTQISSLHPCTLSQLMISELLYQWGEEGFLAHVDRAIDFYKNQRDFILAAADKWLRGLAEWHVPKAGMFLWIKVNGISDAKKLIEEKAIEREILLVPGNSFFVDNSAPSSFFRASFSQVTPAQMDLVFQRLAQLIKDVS

Structure (SMILES)	IC50 [1] [nM]	inhibition [2] [%]	IC50 [3] [nM]	IC50 [4] [nM]	IC50 [5] [nM]	IC50 [6] [nM]	inhibition [7] [%]
C[C@H]1COc2c(N3CCN(N)CC3)c(F)cc3c(=O)c(C(=O)O)cn1c23	1000	8.3	> 30000	> 30000	1000	910	5.1
C[C@@H]1COc2c(N3CCN(N)CC3)c(F)cc3c(=O)c(C(=O)O)cn1c23						1500	
